Values after ≈ are worked out from the molar mass of the structure shown. Some results are limits rather than exact numbers.

One experiment is described as follows: Antioxidant activity assessed as DPPH radical scavenging activity incubated for 30 mins under dark condition. Type of experiment: functional. A general note: DPPH is a stable violet radical that fades when it is reduced.
For `COc1cc(O)c2c(O)c3c(=O)oc(C)cc3cc2c1`, the IC50 (usually the point on the concentration scale where inhibition reaches its midpoint) is 78.4 µg/mL (≈ 288 µM).

Take `O=C1O[C@H]([C@@H](O)CO)C(O)=C1O` [ASCORBIC ACID]: the IC50 was determined as 6.48 µg/mL (≈ 36.8 µM).

In the case of `COc1cc(O)c2c(O)c3c(=O)cc(C)oc3cc2c1` [RUBROFUSARIN], the IC50 was determined as 3.03 µg/mL (≈ 11.1 µM).

A short description of another experiment: Inhibition of baker's yeast alpha-glucosidase using PNPG as substrate preincubated for 15 mins followed by substrate addition and measured after 15 mins. On the set-up: species or system Saccharomyces cerevisiae.
Consider `Cc1cc(O)c2c(c1)C(C1c3cccc(O)c3C(=O)c3c(O)cc(C)cc31)c1cccc(O)c1C2=O` (stereo not given), for which the IC50 came out at 60.09 µg/mL (≈ 126 µM).

`COc1ccc2c(c1O)C(=O)c1c(cc(C)c(O)c1OC)C2=O` returned an IC50 of 183.91 µg/mL (≈ 585 µM).

`COc1cc(O)c2c(O)c3c(=O)oc(C)cc3cc2c1` returned an IC50 of 80.01 µg/mL (≈ 294 µM).

As to `COc1c(C)cc2c(c1O)C(=O)c1c(cc(O)c(OC)c1O)C2=O`, the IC50 worked out at 120.65 µg/mL (≈ 365 µM).

Compound `COc1cc2c(c(O)c1OC)C(=O)c1c(cc(C)c(OC)c1OC)C2=O` returned an IC50 of 164.81 µg/mL (≈ 460 µM).

Compound `C[C@H]1O[C@H](O[C@H]2[C@H](O)[C@@H](O)[C@@H](O[C@H]3[C@H](O)[C@@H](O)C(O)O[C@@H]3CO)O[C@@H]2CO)[C@H](O)[C@@H](O)[C@@H]1N[C@H]1C=C(CO)[C@@H](O)[C@H](O)[C@H]1O` (stereo not given in full) [ACARBOSE] came in with an IC50 of less than 5.05 µg/mL.

`COc1c(O)cc2c(c1O)C(=O)c1c(cc(C)c(O)c1OC)C2=O` [AURANTIOOBTUSIN] registered an IC50 of 107.81 µg/mL (≈ 326 µM).

Compound `Cc1cc(O)c2c(c1)C(=O)c1cccc(O)c1C2=O` [CHRYSOPHANOL] gave a concentration for half-maximal inhibition (IC50) of 50.6 µg/mL (≈ 199 µM).

Regarding `COc1c(O)c(C)cc2c1C(=O)c1c(O)cccc1C2=O` [OBTUSIFOLIN], the IC50 is 144.64 µg/mL (≈ 509 µM).

In turn, `COc1cc(O)c2c(c1)C(=O)c1cc(C)cc(O)c1C2=O` [PHYSCION] had an IC50 of 22.57 µg/mL (≈ 79.4 µM).

In turn, `COc1cc(O)cc2c1C(=O)c1c(O)cc(C)cc1C2=O` [QUESTIN] displayed an IC50 of 117.94 µg/mL (≈ 415 µM).

The compound `COc1cc(O)c2c(O)c3c(=O)cc(C)oc3cc2c1` [RUBROFUSARIN] yielded an IC50 of 162.04 µg/mL (≈ 595 µM).
